Results taken from article PMC5431883, “Enhancing Specific Disruption of Intracellular Protein Complexes by Hydrocarbon Stapled Peptides Using Lipid Based Delivery” (Scientific Reports, 2017).
Values belong to the compound of their own block, whether it stands above or below them. Positions of bridges follow the written chain, without caps; N, C: chain ends. Non-standard residues stand in square brackets, D forms with d. Residues, ends and D or L forms follow the SMILES beside them. R8 = C=CCCCCCC[C@@](C)(N)C(=O)O; Cba = N[C@@H](CC1CCC1)C(=O)O; S5 = C=CCCC[C@](C)(N)C(=O)O; Ahx = NCCCCCC(=O)O

Assays:
T22 cells = assay: Lactate dehydrogenase (LDH) release assay in T22 cells; assay type: cell-based, murine; conditions: for LDH Release (T22 Cells), 0% FCS (LDH50) / LDH Release (T22 Cells), 10% FCS (LDH50): 2 h treatment, normalised to 0.1% Triton X-100 lysis, 4 parameter fit to 10 point titration
Description: (§1) T22 cells or HEK 293 cells were seeded into a 96-well plate at a cell density of 5000 cells per well. Cells were maintained in Dulbecco’s Minimal Eagle Medium (DMEM) with 10% fetal bovine serum (FBS) and 1% (v/v) penicillin/streptomycin. The cells were incubated for 24 hours followed by cell media removal and addition of 90 µl of DMEM either with or without 10% FCS. Cells were then treated with compounds/peptide for 2 hours in DMEM with or without 10% FBS. Final working concentration of DMSO was 1% v/v. Corresponding negative control wells with 1% DMSO only were also prepared. Cytosolic lactate dehydrogenase release was detected using the cytoTox 96® non-radioactive cytotoxicity Assay kit (Promega) as per manufacturer’s instructions. Measurements were carried out using an Envision multiplate reader (Perkin-Elmer). Maximum LDH release was defined as the amount of LDH released when cells were lysed in the presence of 0.1% TRITON X-100 and was used to normalize the results.

T22 p53 reporter cells = assay: p53 gene reporter assay (β-galactosidase) in T22 cells; assay type: cell-based, murine; conditions: for P53 Activation (T22 Cells), 0% FCS (p53ACT50 / EC50) / P53 Activation (T22 Cells), 10% FCS (p53ACT50 / EC50): 18 h, 1% DMSO, normalised to 25 µM Nutlin, 4 parameter fit to 10 point titration
Description: T22 cells, which were stably transfected with a p53 responsive β-galactosidase reporter, were seeded into a 96-well plate at a cell density of 8000 cells per well. Cells were also maintained in Dulbecco’s Minimal Eagle Medium (DMEM) with 10% fetal calf serum (FCS) and 1% (v/v) penicillin/streptomycin. The cells were incubated for 24 hours and followed by cell media removal and replacement with 90 µl of fresh DMEM either containing 10% FCS or 0% FCS. 10 µl of each compound was then added directly to each well and incubated for 18 hours. Final working concentration of DMSO was 1% v/v. […] Measurements were carried out using an Envision multiplate reader (Perkin-Elmer). […] This was then used to normalize the experimental results.

Mdm2 (1-125) = biological target: T1, Mdm2 (1-125) (Homo sapiens, UniProt Q00987); assay: Mdm2 competitive fluorescence anisotropy assay (FAM-labeled 12/1 peptide displacement); assay type: binding; conditions: for Kd: read-out: Kd (apparent dissociation constant, competitive fluorescence anisotropy); on Kd (apparent dissociation constant, competitive fluorescence anisotropy): 250 nM MDM2
T1 construct: Purified MDM2 (1-125) protein was titrated against 50 nM carboxyfluorescein (FAM)-labeled; GST (N, cleaved yes); made in house; host or cells: E. coli BL21 DE3 (pGEX-6P-1)
T1 sequence (Q00987 1-125): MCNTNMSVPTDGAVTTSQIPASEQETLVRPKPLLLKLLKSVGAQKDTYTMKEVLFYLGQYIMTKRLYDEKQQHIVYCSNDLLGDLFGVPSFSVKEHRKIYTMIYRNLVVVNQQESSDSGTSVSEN
Description: analyzed with SDS page gel and concentrated using a Centricon (3.5 kDa MWCO) concentrator, Millipore. Mdm2 protein samples were then dialyzed into a buffer solution containing 20mM Bis-Tris, pH 6.5, 0.05M NaCl with 1mM DTT and loaded onto a monoS column pre-equilibrated in buffer A (20mM Bis-Tris, pH 6.5, 1mM DTT). The column was then washed in 6 column volumes of buffer A and bound protein was eluted with a linear gradient of 1M NaCL over 25 column volumes. Protein fractions were analyzed with SDS page gel and concentrated using a Centricon (3.5 kDa MWCO) concentrator, Millipore.
Protein concentration was determined using A280 using an extinction coefficients […]
Mdm2 Competitive Fluorescence Anisotropy Assay and Kd Determination […]
Dissociation constants for titration of MDM2 against […]
equation shown below:25,26
[P] is the protein concentration (MDM2), [L] is the labeled peptide concentration, r is the anisotropy measured, r0 is the anisotropy of the free peptide, rb is the anisotropy of the MDM2– FAM-labeled peptide complex, Kd is the dissociation constant, [L]t is the total FAM labeled
(1 picture or pasted object on this page, not shown here) […]
peptide concentration, and [P]t is the total MDM2 concentration. […]
respective competing ligands in subsequent competition assays.
Apparent Kd values were determined for a variety of molecules via competitive fluorescence anisotropy experiments. Titrations were carried out with the concentration of MDM2 held constant […]
The competing molecules were then titrated against the complex of the FAM-labeled peptide and protein. Apparent Kd values were determined by fitting the experimental data to the equations shown below:26,27 […]
[L]st and [L]t denote labeled ligand and total unlabeled ligand input concentrations, respectively.
Kd2 is the dissociation constant of the interaction between the unlabeled ligand and the protein. In […]
all competitive types of experiments, it is assumed that [P]t > [L]st, otherwise considerable amounts of free labeled ligand would always be present and would interfere with measurements. Kd1 is the […]
experimentally determined as described in the previous paragraph. The FAM-labeled peptide was dissolved in dimethyl sulfoxide (DMSO) at 1 mM and diluted into experimental buffer. Readings were carried out with an Envision Multilabel Reader (PerkinElmer). Experiments were carried out […]
Tween 20 buffer. All titrations were carried out in triplicate. Curve-fitting was carried out using […]
Negative control titrations of the ligands under investigation were also carried out with the fluorescently labeled peptide (in the absence of MDM2) to ensure no interactions were occurring between the ligands and FAM-labeled peptide. […]
which would otherwise indicate an unintended interaction between the ligand and the FAM-labeled peptide to be displaced from the MDM2 binding site. […]

HEK293 cells = assay: Lactate dehydrogenase (LDH) release assay in HEK293 cells; assay type: cell-based; conditions: 0% FCS, 2 hour treatment, 12.5, 25 and 50 µM, normalised to 0.1% Triton X100 (Figure S1)
Description: as §1, with “results. […]” for “results.”
to induce LDH release in HEK293 cells after a 2 hour treatment period in A) the absence of FCS and B) the presence of 10% FCS. Compounds were tested at concentrations of 12.5 µM, 25 µM and 50 µM. Results were normalized to maximal LDH release as measured by treatment with 0.1% Triton X100.
(1 picture or pasted object on this page, not shown here)

LDH Release (T22 Cells), 0% FCS (LDH50) (T22 cells): No Release | LDH Release (T22 Cells), 10% FCS (LDH50) (T22 cells): No Release | binding against Mdm2 in the FA competition assay (in words) (Mdm2 (1-125)): no binding
Structure (SMILES): CC(=O)N[C@@H](CCCCN)C(=O)N[C@@H](CCCCN)C(=O)NCCCCCC(=O)N[C@H](C(=O)N[C@@H](CO)C(=O)N[C@@H](CC(C)C)C(=O)N[C@]1(C)CCCCCCC=CCCC[C@@](C)(C(=O)N[C@@H](CCC(=O)O)C(=O)N[C@@H](CC(N)=O)C(=O)N[C@@H](Cc2ccccc2)C(N)=O)NC(=O)[C@H](Cc2c[nH]c3ccccc23)NC(=O)[C@H](CC(C)C)NC(=O)[C@H](C)NC(=O)[C@H](Cc2ccccc2)NC(=O)[C@H](Cc2ccc(O)cc2)NC(=O)[C@H](CCC(=O)O)NC1=O)[C@@H](C)O [VIP-82^SCRAM] (Ac-KK[Ahx]TSL[R8]EYFALW[S5]ENF-NH2; staple 7-14)
LDH release, peptide formulated with SaintPhD (in words) (T22 cells; formulated with SaintPhD (Figure S2)): did not induce any p53 activity or LDH release | P53 Activation (T22 Cells), 0% FCS (p53ACT50 / EC50) (T22 p53 reporter cells): No Activity | P53 Activation (T22 Cells), 10% FCS (p53ACT50 / EC50) (T22 p53 reporter cells): No Activity | p53 activity, peptide formulated with SaintPhD (in words) (T22 p53 reporter cells; formulated with SaintPhD, conditions identical to VIP-82:SaintPhD (Figure S2)): did not induce any p53 activity or LDH release

Kd (Mdm2 (1-125)): 39.5 ± 3.9 nM
Structure (SMILES): CC(=O)N[C@@H](CCCNC(=N)N)C(=O)NCCCCCC(=O)N[C@H](C(=O)N[C@@H](CO)C(=O)N[C@@H](Cc1ccccc1)C(=O)N[C@]1(C)CCCCCCC=CCCC[C@@](C)(C(=O)N[C@@H](CCC(=O)O)C(=O)N[C@@H](CC(N)=O)C(=O)N[C@@H](Cc2ccccc2)C(N)=O)NC(=O)[C@H](CC(C)C)NC(=O)[C@H](CC(C)C)NC(=O)[C@H](C)NC(=O)[C@H](Cc2c[nH]c3ccccc23)NC(=O)[C@H](Cc2ccc(O)cc2)NC(=O)[C@H](CCC(=O)O)NC1=O)[C@@H](C)O [VIP-118]

Kd (Mdm2 (1-125)): 14 ± 1.1 nM
Structure (SMILES): CC(=O)N[C@H](C(=O)N[C@@H](CO)C(=O)N[C@@H](Cc1ccccc1)C(=O)N[C@]1(C)CCCCCCC=CCCC[C@@](C)(C(=O)N[C@@H](CCC(=O)O)C(N)=O)NC(=O)[C@H](CC2CCC2)NC(=O)[C@H](CC(C)C)NC(=O)[C@H](C)NC(=O)[C@H](Cc2c[nH]c3ccccc23)NC(=O)[C@H](Cc2ccc(O)cc2)NC(=O)[C@H](CCC(=O)O)NC1=O)[C@@H](C)O [VIP-71] (Ac-TSF[R8]EYWAL[Cba][S5]E-NH2; staple 4-11)

Kd (Mdm2 (1-125)): 2.7 ± 0.9 nM
Structure (SMILES): CC(=O)N[C@@H](CCCCN)C(=O)N[C@@H](CCCCN)C(=O)NCCCCCC(=O)N[C@@H](CC(C)C)C(=O)N[C@H](C(=O)N[C@@H](Cc1ccccc1)C(=O)N[C@]1(C)CCCCCCC=CCCC[C@@](C)(C(=O)N[C@@H](CCC(=O)O)C(=O)N[C@@H](CC(N)=O)C(=O)N[C@@H](Cc2ccccc2)C(N)=O)NC(=O)[C@H](CC(C)C)NC(=O)[C@H](CC(C)C)NC(=O)[C@H](C)NC(=O)[C@H](Cc2c[nH]c3ccccc23)NC(=O)[C@H](Cc2ccc(O)cc2)NC(=O)[C@H](CCC(=O)O)NC1=O)[C@@H](C)O [VIP-119] (Ac-KK[Ahx]LTF[R8]EYWALL[S5]ENF-NH2; staple 7-14)

Kd (Mdm2 (1-125)): 8 ± 0.8 nM
Structure (SMILES): CC(=O)N[C@H](CCCCN)C(=O)NCCCCCC(=O)N[C@H](C(=O)N[C@@H](CO)C(=O)N[C@@H](Cc1ccccc1)C(=O)N[C@]1(C)CCCCCCC=CCCC[C@@](C)(C(=O)N[C@@H](CCC(=O)O)C(=O)N[C@@H](CC(N)=O)C(=O)N[C@@H](Cc2ccccc2)C(N)=O)NC(=O)[C@H](CC(C)C)NC(=O)[C@H](CC(C)C)NC(=O)[C@H](C)NC(=O)[C@H](Cc2c[nH]c3ccccc23)NC(=O)[C@H](Cc2ccc(O)cc2)NC(=O)[C@H](CCC(=O)O)NC1=O)[C@@H](C)O [VIP-132]

Kd (Mdm2 (1-125)): 10 ± 1 nM
Structure (SMILES): CC(=O)N[C@H](CCCCN)C(=O)N[C@H](CCCCN)C(=O)NCCCCCC(=O)N[C@H](C(=O)N[C@@H](CO)C(=O)N[C@@H](Cc1ccccc1)C(=O)N[C@]1(C)CCCCCCC=CCCC[C@@](C)(C(=O)N[C@@H](CCC(=O)O)C(=O)N[C@@H](CC(N)=O)C(=O)N[C@@H](Cc2ccccc2)C(N)=O)NC(=O)[C@H](CC(C)C)NC(=O)[C@H](CC(C)C)NC(=O)[C@H](C)NC(=O)[C@H](Cc2c[nH]c3ccccc23)NC(=O)[C@H](Cc2ccc(O)cc2)NC(=O)[C@H](CCC(=O)O)NC1=O)[C@@H](C)O [VIP-133] (Ac-[dK][dK][Ahx]TSF[R8]EYWALL[S5]ENF-NH2; staple 7-14)

LDH Release (T22 Cells), 0% FCS (LDH50) (T22 cells): 25.1 ± 2.8 µM | LDH Release (T22 Cells), 10% FCS (LDH50) (T22 cells): 105 ± 8.0 µM | binding against Mdm2 in the FA competition assay (in words) (Mdm2 (1-125)): no binding
Structure (SMILES): CC(=O)N[C@H](C(=O)N[C@@H](CO)C(=O)N[C@@H](CC(C)C)C(=O)N[C@]1(C)CCCCCCC=CCCC[C@@](C)(C(N)=O)NC(=O)[C@H](Cc2c[nH]c3ccccc23)NC(=O)[C@H](CC(C)C)NC(=O)[C@H](C)NC(=O)[C@H](Cc2ccccc2)NC(=O)[C@H](Cc2ccc(O)cc2)NC(=O)[C@H](CCC(=O)O)NC1=O)[C@@H](C)O [sMTIDE-02^SCRAM] (Ac-TSL[R8]EYFALW[S5]-NH2; staple 4-11)
P53 Activation (T22 Cells), 0% FCS (p53ACT50 / EC50) (T22 p53 reporter cells): No Activity | P53 Activation (T22 Cells), 10% FCS (p53ACT50 / EC50) (T22 p53 reporter cells): No Activity | LDH release in HEK293 cells, absence of serum (in words) (HEK293 cells): induced significant amounts of LDH release

Kd (Mdm2 (1-125)): 6.2 ± 0.9 nM
Structure (SMILES): CC(=O)N[C@H](CCCCN)C(=O)N[C@H](CCCCN)C(=O)N[C@H](CCCCN)C(=O)NCCCCCC(=O)N[C@H](C(=O)N[C@@H](CO)C(=O)N[C@@H](Cc1ccccc1)C(=O)N[C@]1(C)CCCCCCC=CCCC[C@@](C)(C(=O)N[C@@H](CCC(=O)O)C(=O)N[C@@H](CC(N)=O)C(=O)N[C@@H](Cc2ccccc2)C(N)=O)NC(=O)[C@H](CC(C)C)NC(=O)[C@H](CC(C)C)NC(=O)[C@H](C)NC(=O)[C@H](Cc2c[nH]c3ccccc23)NC(=O)[C@H](Cc2ccc(O)cc2)NC(=O)[C@H](CCC(=O)O)NC1=O)[C@@H](C)O [VIP-134] (Ac-[dK][dK][dK][Ahx]TSF[R8]EYWALL[S5]ENF-NH2; staple 8-15)
